Data published in patent publication US20250011300A1, “PIPERAZINYLSULFONYLARYL COMPOUNDS FOR TREATMENT OF BACTERIAL INFECTIONS” (Hoffmann-La Roche Inc., priority 2021, published 2025).
Values after ≈ are worked out from the molar mass of the structure shown. Like-named read-outs stand apart in the source and are kept apart here.

Tests used:
[1] = target: Escherichia coli LpxH (UDP-2,3-diacylglucosamine hydrolase) (Escherichia coli (strain K12), UniProt P43341); assay: 50% Inhibitory Concentration (IC50) to LpxH, UMP/CMP-Glo Glycosyltransferase Assay kit; assay type: biochemical
Description: Example 121: 50% Inhibitory Concentration (IC50) to UDP-2,3-diacylglucosamine hydrolase (LpxH)
The inhibitory potency of molecules to UDP-2,3-diacylglucosamine hydrolase (LpxH) was determined using the UMP/CMP-Glo™ Glycosyltransferase Assay kit. LpxH hydrolyzes the pyrophosphate bond of UDP-2,3-diacylglucosamine (UDP-DAG) to yield 2,3-diacylglucosamine 1-phosphate (lipid X) and UMP. The assay kit could quantify the UMP production by convert the UMP to ATP and generate light in a luciferase reaction. The compound's effect on the LpxH activity is detected by measuring the light using a luminometer (Envision).

E. coli (ATCC 25922) = assay: Minimal Inhibitory Concentration (MIC) assay, E. coli; assay type: cell-based; conditions: Escherichia coli, read-out: MIC E. coli ATCC 25922
Description: (§1) Example 122: Minimal Inhibitory Concentration Protocol (MIC) Assay
(§2) The in vitro potency of compounds to inhibit E. coli (ATCC 25922) and K. pneumonia (ATCC 43816) growth was assessed by MIC (Minimal Inhibitory Concentration) assay. Samples were prepared from 10 mM DMSO stock solutions. After serial 2-fold dilution in DMSO in a master plate (Greiner, Cat No: 651201), 180 μL sterile distilled water was added to 20 μL each aliquot of the samples. Then 10 μL diluted compounds were transferred into a new assay plate (Costar, 3599).
(§3) The growth medium Cation-Adjusted Mueller Hinton Broth (CAMHB) was prepared by adding the 20 mg per liter CaCl2) and 20 mg per liter MgCl2 into the MHB medium (Jianglai Company, sterilized).
(§4) Vials of each of the test microorganisms were maintained frozen in the vapor phase of a liquid nitrogen freezer. The bacteria E. coli ATCC 25922 (KWIKSTIK, 0335K) and K. pneumonia ATCC 43816 were taken out from liquid nitrogen freezer, then thawed in room temperature, and diluted in the CAMHB medium to achieve a final inoculum of 5×10^5 CFU/mL. 90 μL CAMHB with bacteria was dispensed to the assay plate and pipetted 5 times.
(§5) Then the assay plates were incubated for 20 hours at 35° C. in ambient air. Following incubation, the MIC (μg/mL), the lowest concentration of drug that inhibits visible growth of the microorganism was read and recorded throw the microscope.

[2] = tested on: K. pneumonia (ATCC 43816); assay: Minimal Inhibitory Concentration (MIC) assay, K. pneumonia; assay type: cell-based; conditions: Klebsiella pneumoniae, read-out: MIC K. pneumoniae ATCC43816
Description: as §1, §2, §3, §4, §5

[3] = ATCC25922, E. coli ATCC 25922, CAMHB, 20 hours at 35° C.
[4] = K. pneumoniae ATCC43816, CAMHB, 20 hours at 35° C.

Escherichia coli LpxH (UDP-2,3-diacylglucosamine hydrolase), sequence (P43341 whole entry): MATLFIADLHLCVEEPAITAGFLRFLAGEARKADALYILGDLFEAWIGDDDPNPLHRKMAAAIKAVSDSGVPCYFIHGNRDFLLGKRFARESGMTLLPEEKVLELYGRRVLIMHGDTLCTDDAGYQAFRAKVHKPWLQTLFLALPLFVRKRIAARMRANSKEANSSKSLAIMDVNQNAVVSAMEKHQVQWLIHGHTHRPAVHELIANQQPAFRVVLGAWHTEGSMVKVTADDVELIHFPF

Row | Compound | IC50 [1] [µM] | MIC (E. coli (ATCC 25922); [3]) [mg/L] | MIC [2, 4] [mg/L] | MIC (E. coli (ATCC 25922); ATCC25922, 20 h) [mg/L] | MIC ([2]; ATCC43816, 20 h) [mg/L]
1 | NC1CC(=O)N(c2ccc(S(=O)(=O)N3CCN(c4cc(C(F)(F)F)cc(Cl)n4)CC3)cc2)C1 (stereo not drawn) [Example 1, 4-Amino-1-[4-[4-[6-chloro-4-(trifluoromethyl)-2-pyridyl]piperazin-1-yl]sulfonylphenyl]pyrrolidin-2-one] | 0.26 | 1.45 (≈ 2.88 µM) | 1.93 (≈ 3.83 µM) | – | –
2 | NCC1CC(=O)N(c2ccc(S(=O)(=O)N3CCN(c4cc(C(F)(F)F)cc(Cl)n4)CC3)cc2)C1 (stereo not drawn) [Example 2, 4-(Aminomethyl)-1-[4-[4-[6-chloro-4-(trifluoromethyl)-2-pyridyl]piperazin-1-yl]sulfonyl-phenyl]pyrrolidin-2-one] | 0.0849 | 1.98 (≈ 3.82 µM) | 3.95 (≈ 7.63 µM) | – | –
3 | NCC1CN(c2ccc(S(=O)(=O)N3CCN(c4cc(C(F)(F)F)cc(Cl)n4)CC3)cc2)C(=O)O1 (stereo not drawn) [Example 3, 5-(Aminomethyl)-3-[4-[4-[6-chloro-4-(trifluoromethyl)-2-pyridyl]piperazin-1-yl]sulfonylphenyl]oxazolidin-2-one] | 0.46 | 3.96 (≈ 7.62 µM) | 1.98 (≈ 3.81 µM) | – | –
4 | CC(=O)NCC1CN(c2ccc(S(=O)(=O)N3CCN(c4cc(C(F)(F)F)cc(Cl)n4)CC3)cc2)C(=O)O1 (stereo not drawn) [Example 4, N-[[3-[4-[4-[6-chloro-4-(trifluoromethyl)-2-pyridyl]piperazin-1-yl]sulfonylphenyl]-2-oxo-oxazolidin-5-yl]methyl]acetamide] | 0.0285 | 3.51 (≈ 6.25 µM) | 7.03 (≈ 12.5 µM) | – | –
5 | CC1(C)C(=O)N(c2ccc(S(=O)(=O)N3CCN(c4cc(C(F)(F)F)cc(Cl)n4)CC3)cc2)CC1N (stereo not drawn) [Example 5, 4-Amino-1-[4-[4-[6-chloro-4-(trifluoromethyl)-2-pyridyl]piperazin-1-yl]sulfonylphenyl]-3,3-dimethyl-pyrrolidin-2-one] | 0.154 | 8.08 (≈ 15.2 µM) | 16.1 (≈ 30.4 µM) | – | –
6 | NCC1COC(=O)N1c1ccc(S(=O)(=O)N2CCN(c3cc(C(F)(F)F)cc(Cl)n3)CC2)cc1 (stereo not drawn) [Example 6, 4-(Aminomethyl)-3-[4-[4-[6-chloro-4-(trifluoromethyl)-2-pyridyl]piperazin-1-yl]sulfonylphenyl]oxazolidin-2-one] | 0.0442 | 1.98 (≈ 3.81 µM) | 1.98 (≈ 3.81 µM) | – | –
7 | N[C@H]1CN(c2ccc(S(=O)(=O)N3CCN(c4cc(C(F)(F)F)cc(Cl)n4)CC3)cc2)C1=O [Example 7, (3S)-3-amino-1-[4-[4-[6-chloro-4-(trifluoromethyl)-2-pyridyl]piperazin-1-yl]sulfonylphenyl]azetidin-2-one] | 0.0633 | 3.78 (≈ 7.72 µM) | 5.66 (≈ 11.6 µM) | – | –
8 | NC1CCN(c2ccc(S(=O)(=O)N3CCN(c4cc(C(F)(F)F)cc(Cl)n4)CC3)cc2)C1=O (stereo not drawn) [Example 8, 3-Amino-1-[4-[4-[6-chloro-4-(trifluoromethyl)-2-pyridyl]piperazin-1-yl]sulfonylphenyl]pyrrolidin-2-one] | 0.117 | 3.86 (≈ 7.66 µM) | 7.72 (≈ 15.3 µM) | – | –
9 | NCCC1CN(c2ccc(S(=O)(=O)N3CCN(c4cc(C(F)(F)F)cc(Cl)n4)CC3)cc2)C(=O)O1 (stereo not drawn) [Example 9, 5-(2-Aminoethyl)-3-[4-[4-[6-chloro-4-(trifluoromethyl)-2-pyridyl]piperazin-1-yl]sulfonylphenyl]oxazolidin-2-one] | 0.0243 | 1.78 (≈ 3.33 µM) | 3.57 (≈ 6.69 µM) | – | –
10 | O=C1CC2(CCCCN2)CN1c1ccc(S(=O)(=O)N2CCN(c3cc(C(F)(F)F)cc(Cl)n3)CC2)cc1 (stereo not drawn) [Example 10, 2-[4-[4-[6-Chloro-4-(trifluoromethyl)-2-pyridyl]piperazin-1-yl]sulfonylphenyl]-2,6-diazaspiro[4.5]decan-3-one] | 0.0197 | 1.05 (≈ 1.88 µM) | 4.2 (≈ 7.53 µM) | – | –
11 | O=C1CC2(CCNCC2)CN1c1ccc(S(=O)(=O)N2CCN(c3cc(C(F)(F)F)cc(Cl)n3)CC2)cc1 [Example 11, 2-[4-[4-[6-Chloro-4-(trifluoromethyl)-2-pyridyl]piperazin-1-yl]sulfonylphenyl]-2,8-diazaspiro[4.5]decan-3-one] | 0.0233 | 2.1 (≈ 3.76 µM) | 4.2 (≈ 7.53 µM) | – | –
12 | O=C1CC2(CNC2)CN1c1ccc(S(=O)(=O)N2CCN(c3cc(C(F)(F)F)cc(Cl)n3)CC2)cc1 [Example 12, 6-[4-[4-[6-Chloro-4-(trifluoromethyl)-2-pyridyl]piperazin-1-yl]sulfonylphenyl]-2,6-diazaspiro[3.4]octan-7-one] | 0.0698 | 2.01 (≈ 3.79 µM) | 4.03 (≈ 7.6 µM) | – | –
13 | O=C1OC2(CNC2)CN1c1ccc(S(=O)(=O)N2CCN(c3cc(C(F)(F)F)cc(Cl)n3)CC2)cc1 [Example 13] | 0.128 | 0.83 (≈ 1.56 µM) | 2.49 (≈ 4.68 µM) | – | –
14 | O=C1OC2(CCNCC2)CN1c1ccc(S(=O)(=O)N2CCN(c3cc(C(F)(F)F)cc(Cl)n3)CC2)cc1 [Example 14, 3-[4-[4-[6-Chloro-4-(trifluoromethyl)-2-pyridyl]piperazin-1-yl]sulfonylphenyl]-1-oxa-3,8-diazaspiro[4.5]decan-2-one] | 0.0964 | 1.75 (≈ 3.13 µM) | 3.5 (≈ 6.25 µM) | – | –
15 | O=C1O[C@H]2CNC[C@H]2N1c1ccc(S(=O)(=O)N2CCN(c3cc(C(F)(F)F)cc(Cl)n3)CC2)cc1 [Example 15, (3aR,6aS)-3-[4-[4-[6-chloro-4-(trifluoromethyl)-2-pyridyl]piperazin-1-yl]sulfonylphenyl]-4,5,6,6a-tetrahydro-3aH-pyrrolo[3,4-d]oxazol-2-one] | 0.0959 | 1.01 (≈ 1.9 µM) | 2.02 (≈ 3.8 µM) | – | –
16 | O=C1O[C@H]2CCNC[C@H]2N1c1ccc(S(=O)(=O)N2CCN(c3cc(C(F)(F)F)cc(Cl)n3)CC2)cc1 [Example 16, (3aR,7aS)-3-[4-[4-[6-chloro-4-(trifluoromethyl)-2-pyridyl]piperazin-1-yl]sulfonylphenyl]-3a,4,5,6,7,7a-hexahydrooxazolo[4,5-c]pyridin-2-one] | 0.0385 | 1.03 (≈ 1.89 µM) | 1.03 (≈ 1.89 µM) | – | –
17 | O=C1O[C@@H]2CNCC[C@@H]2N1c1ccc(S(=O)(=O)N2CCN(c3cc(C(F)(F)F)cc(Cl)n3)CC2)cc1 [Example 17, (3aR,7aS)-1-[4-[4-[6-chloro-4-(trifluoromethyl)-2-pyridyl]piperazin-1-yl]sulfonylphenyl]-3a,4,5,6,7,7a-hexahydrooxazolo[5,4-c]pyridin-2-one] | 0.482 | – | – | 1.82 (≈ 3.33 µM) | 3.64 (≈ 6.67 µM)
18 | O=C1O[C@@H]2CCNC[C@@H]2N1c1ccc(S(=O)(=O)N2CCN(c3cc(C(F)(F)F)cc(Cl)n3)CC2)cc1 [Example 18, (3aS,7aR)-3-[4-[4-[6-chloro-4-(trifluoromethyl)-2-pyridyl]piperazin-1-yl]sulfonylphenyl]-3a,4,5,6,7,7a-hexahydrooxazolo[4,5-c]pyridin-2-one] | 0.152 | 0.91 (≈ 1.67 µM) | 0.91 (≈ 1.67 µM) | – | –
19 | O=C1O[C@@H]2CCCNC[C@@H]2N1c1ccc(S(=O)(=O)N2CCN(c3cc(C(F)(F)F)cc(Cl)n3)CC2)cc1 [Example 19, (3aS,8aR)-3-[4-[4-[6-chloro-4-(trifluoromethyl)-2-pyridyl]piperazin-1-yl]sulfonylphenyl]-4,5,6,7,8,8a-hexahydro-3aH-oxazolo[4,5-c]azepin-2-one] | 0.0339 | 1.05 (≈ 1.88 µM) | 1.05 (≈ 1.88 µM) | – | –
20 | O=C1CC2NCCC2N1c1ccc(S(=O)(=O)N2CCN(c3cc(C(F)(F)F)cc(Cl)n3)CC2)cc1 (stereo not drawn) [Example 20, 4-[4-[4-[6-Chloro-4-(trifluoromethyl)-2-pyridyl]piperazin-1-yl]sulfonylphenyl]-1,2,3,3a,6,6a-hexahydropyrrolo[3,2-b]pyrrol-5-one] | 0.0623 | 1.77 (≈ 3.34 µM) | 3.54 (≈ 6.68 µM) | – | –
